{
  "source": "paper PMC4180501",
  "about": "(Biochimica et biophysica acta, 2012)",
  "key": {"GK-W99 (W167F/W257F)": {"target": "T1, GK-W99 (W167F/W257F) (Homo sapiens, UniProt P35557, W167F/W257F)", "T1 sequence (P35557 1-465 W167F/W257F)": "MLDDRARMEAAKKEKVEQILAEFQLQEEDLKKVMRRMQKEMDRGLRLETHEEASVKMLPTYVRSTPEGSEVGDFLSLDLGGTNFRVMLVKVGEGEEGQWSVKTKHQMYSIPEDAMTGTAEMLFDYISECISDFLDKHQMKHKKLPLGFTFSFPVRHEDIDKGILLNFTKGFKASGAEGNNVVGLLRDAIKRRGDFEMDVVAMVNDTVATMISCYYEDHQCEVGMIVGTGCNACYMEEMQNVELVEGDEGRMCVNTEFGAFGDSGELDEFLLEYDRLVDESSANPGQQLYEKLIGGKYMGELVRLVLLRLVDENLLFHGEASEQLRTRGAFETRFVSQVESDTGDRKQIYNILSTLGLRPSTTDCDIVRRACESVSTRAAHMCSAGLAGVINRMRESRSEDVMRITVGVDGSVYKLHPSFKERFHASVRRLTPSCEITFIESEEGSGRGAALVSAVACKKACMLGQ", "test": "D-glucose binding by tryptophan fluorescence titration", "details": "W-99, no GKA"}, "GK- W257 (W99R/W167F)": {"target": "T2, GK- W257 (W99R/W167F) (Homo sapiens, UniProt P35557, W167F/W99R)", "T2 sequence (P35557 1-465 W99R/W167F)": "T1 sequence (P35557 1-465 W167F/W257F) with W99R, F257W", "test": "NADP+-coupled spectrophotometric kinetic assay", "assay_type": "biochemical", "details": "W-257, no GKA"}},
  "note": "Substitutions are numbered along the chain they refer to.",
  "data": [
    {"compound": "OC[C@H]1OC(O)[C@H](O)[C@@H](O)[C@@H]1O", "note": "(stereo partly drawn) [D-glucose]", "values": [
      {"measurement": "Kd", "setting": "GK-W99 (W167F/W257F); 20% glycerol", "result": 4.06, "unit": "mM"},
      {"measurement": "Kd", "setting": "GK-W99 (W167F/W257F); no glycerol", "result": 18.8, "unit": "mM"},
      {"measurement": "Glucose S0.5", "setting": "GK- W257 (W99R/W167F); 30% glycerol", "result": 4.70, "unit": "mM"},
      {"measurement": "kcat", "setting": "GK- W257 (W99R/W167F); 30% glycerol", "result": 6.37, "unit": "s⁻¹"},
      {"measurement": "nH (Hill coefficient towards glucose)", "setting": "GK- W257 (W99R/W167F); 30% glycerol", "result": 1.43},
      {"measurement": "Glucose S0.5", "setting": "GK- W257 (W99R/W167F); no glycerol", "result": 9.82, "unit": "mM"},
      {"measurement": "kcat", "setting": "GK- W257 (W99R/W167F); no glycerol", "result": 12.4, "unit": "s⁻¹"},
      {"measurement": "kcat/S0.5", "setting": "GK- W257 (W99R/W167F); no glycerol", "result": 1270, "unit": "M⁻¹ s⁻¹"},
      {"measurement": "nH (Hill coefficient towards glucose)", "setting": "GK- W257 (W99R/W167F); no glycerol", "result": 1.23}
    ]}
  ]
}
